According to patent US12692261B2, “Substituted heterocyclic compounds and therapeutic uses thereof” (Bayer Aktiengesellschaft, priority 2020, dated 2026):

Columns and labels:
[1] = target: T1, full-length human CSNK1A1 (Homo sapiens, UniProt P48729); test: CSNK1A1 High ATP Assay (ADP-Glo, 1 mM ATP); format: biochemical; conditions: Table 3, read-out: CSNK1A1 high ATP assay IC50 [mol/l] (median);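 note: 30 min kinase reaction at 22 °C with 100 µM peptide substrate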
T1 construct: N-terminal Glutathion-S-Transferase (GST) and full-length human CSNK1A1; purchased Life Technologies PV4174; host or cells: baculovirus infected insect cells
Experimental: CSNK1A1-inhibitory activity of compounds of the present invention in presence of 1 mM adenosine-tri-phosphate (ATP) was quantified employing the CSNK1A1-high-ATP-assay as described in the following paragraphs. In essence, the enzyme activity is measured by quantification of the adenosine-di-phosphate (ADP), which is generated as a co-product of the enzyme reaction, via the “ADP-Glo™ Kinase Assay” kit from the company Promega. This detection system works as follows: In a first step the ATP not consumed in the kinase reaction is quantitatively converted to cAMP employing an adenylate cyclase (“ADP-Glo-reagent”), then the adenylate cyclase is stopped and the ADP generated in the kinase reaction converted to ATP which generates in a luciferase-based reaction a glow-luminescence signal (“Kinase Detection Reagent”).
Recombinant fusion protein of N-terminal Glutathion-S-Transferase (GST) and full-length human CSNK1A1, expressed by baculovirus infected insect cells and purified via Glutathion affinity chromatography, was purchased from Life Technologies (product no. PV4174) and used as enzyme. As substrate for the kinase reaction the biotinylated peptide biotin-Ahx-KRRRAL-pS-VASLPGL (C-terminus in amide form) was used which can be purchased e.g. from the company Biosyntan (Berlin-Buch, Germany).
For the assay 50 nl of a 100 fold concentrated solution of the test compound in DMSO was pipetted into a white low volume 384-well microtiter plate (Greiner Bio-One, Frickenhausen, Germany), 2 μL of a solution of CSNK1A1 in aqueous assay buffer [50 mM HEPES pH 7.5, 10% (v/v) glycerol, 10 mM MgCl2, 50 mM NaCl, 1 mM dithiothreitol, 0.01% (w/v) bovine serum albumin, 0.01% (v/v) Triton X-100] were added and the mixture was incubated for 15 min at 22° C. to allow pre-binding of the test compounds to the enzyme before the start of the kinase reaction. […] The concentration of CSNK1A1 was adjusted depending of the activity of the enzyme lot and was chosen appropriate to have the assay in the linear range, a typical concentration is about 0.4 ng/μL. The reaction was stopped by the addition of 2.5 μL of “ADP-Glo-reagent” (1:1.5 fold diluted with water) and the resulting mixture was incubated at 22° C. for 1 h to convert the ATP not consumed in the kinase reaction completely […]. Subsequently 2.5 μL of the “kinase detection reagent” (1.2 fold more concentrated than recommended by the producer) were added, the resulting mixture was incubated at 22° C. for 1 h and then the luminescence measured with a suitable measurement instrument (e.g. Viewlux™ from Perkin-Elmer). The amount of emitted light was taken as a measure for the amount of ADP generated and thereby for the activity of the CSNK1A1.

[2] = target: T2, wild-type Epidermal Growth Factor Receptor (EGFR) (Homo sapiens, UniProt P00533); test: WT-EGFR Kinase Assay (TR-FRET, 2 mM ATP); format: biochemical; conditions: EGFR Wildtyp 2 mM ATP IC50 [mol/l] (median), Table 4
T2 construct: a fragment of human EGFR (amino acids R669 to A1210); made in house; host or cells: Sf9 insect cells
From the text: Inhibitory activity of compounds of the present invention against wild-type Epidermal Growth Factor Receptor (EGFR) was quantified employing the TR-FRET based EGFR assay as described in the following paragraphs.
Recombinant fusion protein of N-terminal Glutathion-S-Transferase (GST) and a fragment of human EGFR (amino acids R669 to A1210), expressed in Sf9 insect cells and purified via affinity chromatography using Glutathion Sepharose as described above, was used as kinase. As substrate for the kinase reaction the biotinylated peptide biotin-Ahx-[…] (C-terminus in amide form) was used which can be purchased e.g. form the company Biosynthan GmbH (Berlin-Buch, Germany).
For the assay 50 nl of a 100 fold concentrated solution of the test compound in DMSO was pipetted into either a black low volume 384 well microtiter plate or a black 1536 well microtiter plate (both Greiner Bio-One, Frickenhausen, Germany), 2 μL of a solution of EGFR in aqueous assay buffer [50 mM Hepes pH 7.0, 10 mM MgCl2, 1 mM dithiothreitol, 0.5 mM EGTA, 0.3 mM activated sodium ortho-vanadate, 0.005% (w/v) bovine serum albumin, 0.005% (v/v) Tween-20] were added and the mixture was incubated for 15 min at 22° C. to allow pre-binding of the test compounds to the enzyme before the start of the kinase reaction. […] The concentration of EGFR was adjusted depending of the activity of the enzyme lot and was chosen appropriate to have the assay in the linear range, typical concentration was 7.6 pg/μL. The reaction was stopped by the addition of 3 μL of a solution of HTRF detection reagents (83.3 nM streptavidine-XL665 [Cisbio Bioassays, Codolet, France] and 1.67 nM PT66-Tb-Cryptate, a terbium-cryptate labelled anti-phospho-tyrosine antibody from Cisbio Bioassays [instead of the PT66-Tb-cryptate PT66-Eu-Chelate from Perkin Elmer can also be used]) in an aqueous EDTA-solution (133.3 mM EDTA, 0.2% (w/v) bovine serum albumin in 50 mM HEPES pH 7.5).
The resulting mixture was incubated 1 h at 22° C. to allow the binding of the biotinylated phosphorylated peptide to the streptavidine-XL665 and the PT66-Tb-Cryptate. Subsequently the amount of phosphorylated substrate was evaluated by measurement of the resonance energy transfer from the PT66-Tb-Cryptate to the streptavidine-XL665. Therefore, the fluorescence emissions at 620 nm and 665 nm after excitation at 337 nm were measured in a HTRF reader, e.g. a Pherastar (BMG Labtechnologies, Offenburg, Germany) or a Viewlux (Perkin-Elmer). The ratio of the emissions at 665 nm and at 622 nm was taken as the measure for the amount of phosphorylated substrate.

T2 sequence (P00533 669-1210): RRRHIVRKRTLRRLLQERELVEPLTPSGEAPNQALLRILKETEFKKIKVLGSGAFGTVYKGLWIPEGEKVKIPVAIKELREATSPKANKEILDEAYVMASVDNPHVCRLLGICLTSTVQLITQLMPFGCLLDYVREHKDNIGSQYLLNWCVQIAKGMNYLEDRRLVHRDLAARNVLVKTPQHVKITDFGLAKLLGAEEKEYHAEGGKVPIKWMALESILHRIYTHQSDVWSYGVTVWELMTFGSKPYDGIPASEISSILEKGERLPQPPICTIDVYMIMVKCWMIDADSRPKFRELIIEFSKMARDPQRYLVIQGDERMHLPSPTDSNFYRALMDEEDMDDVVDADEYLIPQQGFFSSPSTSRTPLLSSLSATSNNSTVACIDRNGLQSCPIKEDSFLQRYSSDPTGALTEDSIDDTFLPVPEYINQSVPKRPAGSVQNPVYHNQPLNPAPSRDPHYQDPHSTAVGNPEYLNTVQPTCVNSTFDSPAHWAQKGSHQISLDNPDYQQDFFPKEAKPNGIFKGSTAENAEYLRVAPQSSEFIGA
T1 sequence (P48729 whole entry): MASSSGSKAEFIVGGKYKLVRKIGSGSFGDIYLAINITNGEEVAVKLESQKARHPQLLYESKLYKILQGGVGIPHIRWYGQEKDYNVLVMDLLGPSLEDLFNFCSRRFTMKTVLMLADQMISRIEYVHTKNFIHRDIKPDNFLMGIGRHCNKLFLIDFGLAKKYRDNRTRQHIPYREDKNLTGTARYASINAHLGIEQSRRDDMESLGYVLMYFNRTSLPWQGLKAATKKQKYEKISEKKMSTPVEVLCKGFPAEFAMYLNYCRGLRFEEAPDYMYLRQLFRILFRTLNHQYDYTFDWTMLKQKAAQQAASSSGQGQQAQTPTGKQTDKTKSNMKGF

Row | SMILES | IC50 [1] | IC50 [2]
1 | O=C(Nc1cc(-c2[nH]c3c(OC[C@H]4COCCO4)cc(F)nc3c2-c2ccccn2)ccn1)C(CC(F)F)c1ccc(F)cc1 (mixture of isomers) [Example 50, (2RS)—N-{4-[7-{[(2R)-1,4-dioxan-2-yl]methoxy}-5-fluoro-3-(pyridin-2-yl)-1H-pyrrolo[3,2-b]pyridin-2-yl]pyridin-2-yl}-4,4-difluoro-2-(4-fluorophenyl)butanamide] | 9.34 nM | > 20000 nM
2 | Cc1ccc2[nH]c(-c3ccnc(NC(=O)C(CC(F)F)c4ccc(F)cc4)c3)c(-c3ccccn3)c2n1 (racemic) [Example 4, 4,4-difluoro-2-(4-fluorophenyl)-N-{4-[5-methyl-3-(pyridin-2-yl)-1H-pyrrolo[3,2-b]pyridin-2-yl]pyridin-2-yl}butanamide] | 158 nM | > 20000 nM
3 | Cc1cnc2c(-c3ccccn3)c(-c3ccnc(NC(=O)C(CC(F)F)c4ccc(F)cc4)c3)[nH]c2c1 (racemic) [Example 7, 4,4-difluoro-2-(4-fluorophenyl)-N-{4-[6-methyl-3-(pyridin-2-yl)-1H-pyrrolo[3,2-b]pyridin-2-yl]pyridin-2-yl}butanamide] | 8.12 nM | > 20000 nM
4 | O=C(Nc1cc(-c2[nH]c3cccnc3c2-c2ccccn2)ccn1)C(CC(F)F)c1ccc(F)cc1 (racemic) [Example 10, 4,4-difluoro-2-(4-fluorophenyl)-N-{4-[3-(pyridin-2-yl)-1H-pyrrolo[3,2-b]pyridin-2-yl]pyridin-2-yl}butanamide] | 9.88 nM | > 20000 nM
5 | O=C(Nc1cc(-c2[nH]c3cncnc3c2-c2ccccn2)ccn1)C(CC(F)F)c1ccc(F)cc1 (racemic) [Example 13, 4,4-difluoro-2-(4-fluorophenyl)-N-{4-[7-(pyridin-2-yl)-5H-pyrrolo[3,2-d]pyrimidin-6-yl]pyridin-2-yl}butanamide] | 240 nM | > 20000 nM
6 | O=C(Nc1cc(-c2[nH]c3cc(F)cnc3c2-c2ccccn2)ccn1)C(CC(F)F)c1ccc(F)cc1 (racemic) [Example 16, 4,4-difluoro-2-(4-fluorophenyl)-N-{4-[6-fluoro-3-(pyridin-2-yl)-1H-pyrrolo[3,2-b]pyridin-2-yl]pyridin-2-yl}butanamide] | 21.9 nM | > 20000 nM
7 | O=C(Nc1cc(-c2[nH]c3cc(F)cnc3c2-c2ccccc2)ccn1)C(CC(F)F)c1ccc(F)cc1 (racemic) [Example 19, 4,4-difluoro-2-(4-fluorophenyl)-N-[4-(6-fluoro-3-phenyl-1H-pyrrolo[3,2-b]pyridin-2-yl)pyridin-2-yl]butanamide] | 602 nM | > 20000 nM
8 | O=C(Nc1cc(-c2[nH]c3cccnc3c2-c2ccccc2)ccn1)C(CC(F)F)c1ccc(F)cc1 (racemic) [Example 22, 4,4-difluoro-2-(4-fluorophenyl)-N-[4-(3-phenyl-1H-pyrrolo[3,2-b]pyridin-2-yl)pyridin-2-yl]butanamide] | 90.4 nM | > 20000 nM
9 | O=C(Nc1cc(-c2[nH]c3cccnc3c2-c2cccc(F)n2)ccn1)C(CC(F)F)c1ccc(F)cc1 (racemic) [Example 25, 4,4-difluoro-2-(4-fluorophenyl)-N-{4-[3-(6-fluoropyridin-2-yl)-1H-pyrrolo[3,2-b]pyridin-2-yl]pyridin-2-yl}butanamide] | 18.6 nM | > 20000 nM
10 | O=C(Nc1cc(-c2[nH]c3c(OCC(F)F)cc(F)nc3c2-c2ccccn2)ccn1)C(CC(F)F)c1ccc(F)cc1 (racemic) [Example 28, (2RS)—N-{4-[7-(2,2-difluoroethoxy)-5-fluoro-3-(pyridin-2-yl)-1H-pyrrolo[3,2-b]pyridin-2-yl]pyridin-2-yl}-4,4-difluoro-2-(4-fluorophenyl)butanamide] | 3.95 nM | > 20000 nM
11 | O=C(Nc1cc(-c2[nH]c3nccnc3c2-c2ccccn2)ccn1)C(CC(F)F)c1ccc(F)cc1 (racemic) [Example 31, (2RS)-4,4-difluoro-2-(4-fluorophenyl)-N-{4-[7-(pyridin-2-yl)-5H-pyrrolo[2,3-b]pyrazin-6-yl]pyridin-2-yl}butanamide] | 3.04 nM | > 20000 nM
12 | Cc1cc2[nH]c(-c3ccnc(NC(=O)C(CC(F)F)c4ccc(F)cc4)c3)c(-c3ccccn3)c2nc1F (racemic) [Example 33, (rac)-4,4-difluoro-N-{4-[5-fluoro-6-methyl-3-(pyridin-2-yl)-1H-pyrrolo[3,2-b]pyridin-2-yl]pyridin-2-yl}-2-(4-fluorophenyl)butanamide] | 19.5 nM | > 20000 nM
13 | Cc1cc(F)nc2c(-c3ccccn3)c(-c3ccnc(NC(=O)C(CC(F)F)c4ccc(F)cc4)c3)[nH]c12 (racemic) [Example 36, (rac)-4,4-difluoro-N-{4-[5-fluoro-7-methyl-3-(pyridin-2-yl)-1H-pyrrolo[3,2-b]pyridin-2-yl]pyridin-2-yl}-2-(4-fluorophenyl)butanamide] | 21.4 nM | > 20000 nM
14 | COc1cc(F)nc2c(-c3ccccn3)c(-c3ccnc(NC(=O)C(CC(F)F)c4ccc(F)cc4)c3)[nH]c12 (racemic) [Example 39, (rac)-4,4-difluoro-N-{4-[5-fluoro-7-methoxy-3-(pyridin-2-yl)-1H-pyrrolo[3,2-b]pyridin-2-yl]pyridin-2-yl}-2-(4-fluorophenyl)butanamide] | 19 nM | > 20000 nM
15 | O=C(Nc1cc(-c2[nH]c3c(OC4CC4)cc(F)nc3c2-c2ccccn2)ccn1)C(CC(F)F)c1ccc(F)cc1 (racemic) [Example 42, (rac)-N-{4-[7-(cyclopropyloxy)-5-fluoro-3-(pyridin-2-yl)-1H-pyrrolo[3,2-b]pyridin-2-yl]pyridin-2-yl}-4,4-difluoro-2-(4-fluorophenyl)butanamide] | 8.22 nM | > 20000 nM
16 | O=C(Nc1cc(-c2[nH]c3c(CC4CC4)cc(F)nc3c2-c2ccccn2)ccn1)C(CC(F)F)c1ccc(F)cc1 (racemic) [Example 46, (2RS)—N-{4-[7-(cyclopropylmethyl)-5-fluoro-3-(pyridin-2-yl)-1H-pyrrolo[3,2-b]pyridin-2-yl]pyridin-2-yl}-4,4-difluoro-2-(4-fluorophenyl)butanamide] | 23.2 nM | > 20000 nM
